Laboratory results published in ChEMBL document CHEMBL1131488, “Dihydropyrancarboxamides related to zanamivir: a new series of inhibitors of influenza virus sialidases. 1. Discovery, synthesis, biological activity, and structure-activity relationships of 4-guanidino- and 4-amino-4H-pyran-6-carboxamides” (J Med Chem, 1998).
pIC50: −log10 of the molar value.

What was measured:
[1] = biological target: Neuraminidase (Influenza A virus (A/Puerto Rico/8/1934(H1N1)), UniProt P03468); test: Inhibition of influenza A virus sialidase activity
Neuraminidase [2] = biological target: T1, Neuraminidase (Influenza B virus (strain B/Lee/1940), UniProt P03474); test: Inhibition of influenza B virus sialidase activity
[3] = biological target: Neuraminidase (Influenza A virus (A/Puerto Rico/8/1934(H1N1)), UniProt P03468); test: Inhibition of sialidase (Flu A, 5 nM)
[4] = Vss, volume of distribution at steady state at a dose of 10 mg/kg; assay type: ADME, organism-based; set-up: dose 10 mg/kg; details: in vivo, read-out: Vss
[5] = t1/2, plasma elimination half life, the time taken for the plasma concentrations to fall by one half, once distribution is complete at a dose of 10 mg/kg; assay type: ADME, organism-based; set-up: dose 10 mg/kg
[6] = Clp, plasma clearance at a dose of 10 mg/kg; assay type: ADME, organism-based; set-up: dose 10 mg/kg; details: read-out: Clp
Mus musculus [7] = test: Compound was tested for in vivo efficacy in mouse model of influenza A virus A/Singapore/1/57 at dose of 1 mg/kg. (in); assay type: functional
Mus musculus [8] = test: Compound was tested for in vivo efficacy in mouse model of influenza A virus A/Singapore/1/57 at dose of 50 mg/kg.(ip); assay type: functional
Mus musculus [9] = test: Compound was tested for in vivo efficacy in mouse model of influenza A virus A/Singapore/1/57 at dose of 10 mg/kg.(ip); assay type: functional
Influenza A virus [10] = test: Compound was tested for in vivo efficacy in mouse model of influenza A virus A/Singapore/1/57 at dose of 10 mg/kg. (in); assay type: functional
Influenza A virus [11] = test: Compound was tested for in vivo efficacy in mouse model of influenza A virus A/Singapore/1/57 at dose of 100 mg/kg. (i.p.); assay type: functional; details: route intraperitoneal
Influenza A virus [12] = test: Compound was tested for concentration of intranasally administered (in) (10 mg/kg) which reduces virus titer by 90%; assay type: functional; details: inhaled or nasal
Mus musculus [13] = test: Compound was tested for in vivo efficacy in mouse model of influenza A virus A/Singapore/1/57 at dose of 1 mg/kg.; assay type: functional
Mus musculus [14] = test: Compound was tested for in vivo efficacy in mouse model of influenza A virus A/Singapore/1/57 at dose of 0.1 mg/kg.; assay type: functional
Mus musculus [15] = test: Compound was tested for concentration of intranasally administered drug (1 mg/kg) which reduces virus titer by 90%; assay type: functional; details: inhaled or nasal
Mus musculus [16] = test: Compound was tested for in vivo efficacy in mouse model of influenza A virus A/Singapore/1/57 at dose of 50 mg/kg.; assay type: functional
[17] = biological target: Neuraminidase (Influenza A virus (A/Puerto Rico/8/1934(H1N1)), UniProt P03468)
[18] = biological target: Neuraminidase (Influenza A virus (A/Puerto Rico/8/1934(H1N1)), UniProt P03468); remark: listed apart in the source
[19] = biological target: Neuraminidase (Influenza A virus (A/Puerto Rico/8/1934(H1N1)), UniProt P03468); remark: listed apart in the source
[20] = biological target: Neuraminidase (Influenza A virus (A/Puerto Rico/8/1934(H1N1)), UniProt P03468); remark: listed apart in the source
Neuraminidase [21] = biological target: T1, Neuraminidase; test: Inhibitory activity against sialidase of influenza B virus by plaque reduction assay
Mus musculus [22] = test: Compound was tested for concentration of intranasally administered drug (0.5 mg/kg) which reduces virus titer by 90%; assay type: functional; details: inhaled or nasal
Mus musculus [23] = test: Compound was tested for in vivo efficacy in mouse model of influenza A virus A/Singapore/1/57 at dose of 50 mg/kg (ip); assay type: functional
Mus musculus [24] = test: Compound was tested for in vivo efficacy in mouse model of influenza A virus A/Singapore/1/57 at dose of 0.5 mg/kg (in); assay type: functional
[25] = t1/2, plasma elimination half life, the time taken for the plasma concentrations to fall by one half, once distribution is complete at a dose of 50 mg/kg; assay type: ADME, organism-based; set-up: dose 50 mg/kg
[26] = Vss, volume of distribution at steady state at a dose of 50 mg/kg; assay type: ADME, organism-based; set-up: dose 50 mg/kg; details: in vivo, read-out: Vss
[27] = Clp, plasma clearance at a dose of 50 mg/kg; assay type: ADME, organism-based; set-up: dose 50 mg/kg; details: read-out: Clp

Chain of Neuraminidase (Influenza A virus (A/Puerto Rico/8/1934(H1N1)), UniProt P03468) (P03468 whole entry): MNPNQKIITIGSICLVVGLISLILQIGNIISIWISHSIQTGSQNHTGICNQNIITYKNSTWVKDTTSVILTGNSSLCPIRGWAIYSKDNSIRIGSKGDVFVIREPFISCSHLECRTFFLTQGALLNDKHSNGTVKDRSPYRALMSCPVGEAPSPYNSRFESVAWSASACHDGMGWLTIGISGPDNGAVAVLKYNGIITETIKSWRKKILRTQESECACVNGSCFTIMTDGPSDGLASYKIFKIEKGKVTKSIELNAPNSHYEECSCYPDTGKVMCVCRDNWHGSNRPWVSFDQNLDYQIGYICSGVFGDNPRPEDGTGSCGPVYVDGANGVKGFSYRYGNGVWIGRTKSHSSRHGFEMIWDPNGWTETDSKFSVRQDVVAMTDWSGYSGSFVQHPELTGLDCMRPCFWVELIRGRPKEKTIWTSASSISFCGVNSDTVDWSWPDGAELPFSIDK
T1 sequence (P03474 whole entry): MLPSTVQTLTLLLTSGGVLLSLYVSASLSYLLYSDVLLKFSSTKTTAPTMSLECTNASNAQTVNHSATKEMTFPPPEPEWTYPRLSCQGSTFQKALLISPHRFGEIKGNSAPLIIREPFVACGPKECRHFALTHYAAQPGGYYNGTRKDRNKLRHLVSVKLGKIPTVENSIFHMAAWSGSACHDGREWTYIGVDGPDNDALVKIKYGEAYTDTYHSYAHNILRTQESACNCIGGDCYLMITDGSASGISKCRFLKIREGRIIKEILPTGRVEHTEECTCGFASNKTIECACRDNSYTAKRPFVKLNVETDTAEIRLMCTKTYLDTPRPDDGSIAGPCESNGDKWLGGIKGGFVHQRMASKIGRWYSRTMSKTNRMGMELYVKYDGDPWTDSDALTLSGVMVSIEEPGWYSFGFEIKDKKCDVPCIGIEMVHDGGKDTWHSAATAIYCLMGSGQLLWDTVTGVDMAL

## CC(=O)N[C@@H]1[C@@H](N)C=C(C(=O)O)O[C@H]1C(=O)N(CCc1ccccc1)CC(N)=O
[1]
  pIC50: 4.72
Neuraminidase [2]
  pIC50: 4.51

## CC(=O)N[C@@H]1[C@@H](N)C=C(C(=O)O)O[C@H]1C(=O)NCCN
[3]
  pIC50: < 3.41

## CCCN(CCc1cccc(-c2ccccc2)c1)C(=O)[C@@H]1OC(C(=O)O)=C[C@H](N)[C@H]1NC(C)=O
[1]
  pIC50: 8.70
Neuraminidase [2]
  pIC50: 5.35

## CCCN(CCCc1ccccc1)C(=O)[C@@H]1OC(C(=O)O)=C[C@H](N)[C@H]1NC(C)=O
[1]
  pIC50: 7.74
Neuraminidase [2]
  pIC50: 4.34

## CC(=O)N[C@@H]1[C@@H](N)C=C(C(=O)O)O[C@H]1C(=O)N(CCc1ccccc1)CC(=O)O
[1]
  pIC50: 3.89
Neuraminidase [2]
  pIC50: 4.12

## CCCN(CCc1ccccc1OC)C(=O)[C@@H]1OC(C(=O)O)=C[C@H](N)[C@H]1NC(C)=O
[1]
  pIC50: 8.05
Neuraminidase [2]
  pIC50: 4.92

## CCCCCCCCCN(CCC)C(=O)[C@@H]1OC(C(=O)O)=C[C@H](N=C(N)N)[C@H]1NC(C)=O
[1]
  pIC50: 8.15
[4]
  Vd: 1.2 L/kg
[5]
  half-life: 55.2 min
[6]
  clearance: 21.8 mL/min/kg
Mus musculus [7]
  Reduction in virus titer: 72%
Neuraminidase [2]
  pIC50: < 5.52
Mus musculus [8]
  Reduction in virus titer: 50%
Mus musculus [9]
  Reduction in virus titer: >99.99%

## CC(=O)N[C@@H]1[C@@H](N)C=C(C(=O)O)O[C@H]1C(=O)N(CCc1ccccc1)CCN(C)C
[1]
  pIC50: < 3.52
Neuraminidase [2]
  pIC50: < 3.52

## CC(=O)N[C@@H]1[C@@H](N)C=C(C(=O)O)O[C@H]1C(=O)N(CCc1ccccc1)C(C)C
[1]
  pIC50: 8.10
Neuraminidase [2]
  pIC50: 5.10

## CCCN(CCc1cccc(OC)c1)C(=O)[C@@H]1OC(C(=O)O)=C[C@H](N)[C@H]1NC(C)=O
[1]
  pIC50: 8.30
Neuraminidase [2]
  pIC50: 5.49

## CCCN(CCc1ccc(Cl)cc1Cl)C(=O)[C@@H]1OC(C(=O)O)=C[C@H](N)[C@H]1NC(C)=O
[1]
  pIC50: 8.22
Neuraminidase [2]
  pIC50: 4.80

## CCCN(Cc1ccccc1)C(=O)[C@@H]1OC(C(=O)O)=C[C@H](N)[C@H]1NC(C)=O
[1]
  pIC50: 5.38
Neuraminidase [2]
  pIC50: 3.74

## CCCN(CCc1ccc(C(C)C)cc1)C(=O)[C@@H]1OC(C(=O)O)=C[C@H](N)[C@H]1NC(C)=O
[1]
  pIC50: 7.92
Neuraminidase [2]
  pIC50: 5.21

## CCCCCCCCCN(CCC)C(=O)[C@@H]1OC(C(=O)O)=C[C@H](N)[C@H]1NC(C)=O
Influenza A virus [10]
  Reduction in virus titer: 96%
[4]
  Vd: 1.3 L/kg
[5]
  half-life: 52.2 min
Influenza A virus [11]
  Reduction in virus titer: 71%
Influenza A virus [12]
  ED90: > 1 mg/kg
[6]
  clearance: 17.9 mL/min/kg

## CCCN(CCC)C(=O)[C@@H]1OC(C(=O)O)=C[C@H](NC(=N)N)[C@H]1NC(C)=O
[4]
  Vd: 0.5 L/kg
[5]
  half-life: 22.2 min
Mus musculus [13]
  Reduction in virus titer: 99.93%
Mus musculus [14]
  Reduction in virus titer: 99.3%
Mus musculus [15]
  ED90: < 0.01 mg/kg
[6]
  clearance: 6 mL/min/kg
Mus musculus [16]
  Reduction in virus titer: 86%

## CC(=O)N[C@@H]1[C@@H](N)C=C(C(=O)O)O[C@H]1C(=O)N(CCc1ccccc1)C1CC1
[1]
  pIC50: 7.34
Neuraminidase [2]
  pIC50: 4.44

## CCCN(C)C(=O)[C@@H]1OC(C(=O)O)=C[C@H](N)[C@H]1NC(C)=O
[17]
  IC50: 110 nM
[18]
  IC50: 3.7 µM
[19]
  pIC50: 5.33
[20]
  IC50: 180 nM

## CC(=O)N[C@@H]1[C@@H](N)C=C(C(=O)O)O[C@H]1C(=O)NCCc1ccccc1
Neuraminidase [21]
  IC50: > 100 µg/mL

## CCN(CC)C(=O)[C@@H]1OC(C(=O)O)=C[C@H](NC(=N)N)[C@H]1NC(C)=O
Mus musculus [16]
  Reduction in virus titer: 89%

## CCCN(CCc1ccc(-c2ccccc2)cc1)C(=O)[C@@H]1OC(C(=O)O)=C[C@H](N)[C@H]1NC(C)=O
[1]
  pIC50: 8.70

## CCCN(CC)C(=O)[C@@H]1OC(C(=O)O)=C[C@H](N)[C@H]1NC(C)=O
Neuraminidase [2]
  pIC50: 6.39

## CC(=O)N[C@H]1[C@H]([C@H](O)[C@H](O)CO)OC(C(=O)O)=C[C@@H]1NC(=N)N [ZANAMIVIR]
Mus musculus [22]
  ED90: 0.03 mg/kg
Mus musculus [23]
  Reduction in virus titer: 96.2%
Mus musculus [24]
  Reduction in virus titer: 99.5%
[25]
  half-life: 9.6 min
[26]
  Vd: 0.3 L/kg
[27]
  clearance: 24.9 mL/min/kg
